Test results from article PMC7316994, “In Vitro Pharmacological Profile of a New Small Molecule Bradykinin B2 Receptor Antagonist” (Frontiers in Pharmacology, 2020).
Like-named read-outs stand apart in the source and are kept apart here.

Assays:
[1] = test system: Chloride Cl- channel (GABA-gated); assay: radioligand binding (Table S2); settings: [35S] TBPS, Rat cerebral cortex
[2] = biological target: T1, Melanin-concentrating hormone receptor MCH1 (Homo sapiens, UniProt Q99705); assay: radioligand binding (Table S2); settings: [125I] [Phe13, Tyr19]-MCH, Human recombinant CHO cells
T1 construct: host or cells: CHO cells

[3] = biological target: Calcitonin gene related peptide CGRP (Homo sapiens, UniProt O60894+Q16602); assay: radioligand binding (Table S2); settings: [125I] hCGRPα, Human recombinant CHO cells
Chain of Calcitonin gene related peptide CGRP (Q16602 23-461): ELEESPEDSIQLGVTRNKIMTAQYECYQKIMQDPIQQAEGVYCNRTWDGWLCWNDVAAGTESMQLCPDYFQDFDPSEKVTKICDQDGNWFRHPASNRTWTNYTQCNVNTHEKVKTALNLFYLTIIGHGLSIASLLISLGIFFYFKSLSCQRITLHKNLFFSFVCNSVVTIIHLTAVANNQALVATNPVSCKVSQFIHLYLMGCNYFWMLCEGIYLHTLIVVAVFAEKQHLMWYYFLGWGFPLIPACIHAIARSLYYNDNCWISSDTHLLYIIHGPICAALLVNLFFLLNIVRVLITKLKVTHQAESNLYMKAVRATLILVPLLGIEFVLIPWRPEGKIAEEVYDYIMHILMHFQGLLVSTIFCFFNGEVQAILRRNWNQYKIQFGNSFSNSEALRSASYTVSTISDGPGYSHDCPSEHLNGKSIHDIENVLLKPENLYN
Chain of Calcitonin gene related peptide CGRP (O60894 27-148 partner): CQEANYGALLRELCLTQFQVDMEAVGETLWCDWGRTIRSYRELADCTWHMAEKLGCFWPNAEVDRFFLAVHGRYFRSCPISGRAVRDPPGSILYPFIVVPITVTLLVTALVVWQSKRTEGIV

[4] = biological target: T2, Leukotriene B4 receptor BLT1 (Homo sapiens, UniProt Q15722); assay: radioligand binding (Table S2); settings: [3H] LTB4, Human recombinant CHO cells
T2 construct: host or cells: CHO cells
T2 sequence (Q15722 whole entry): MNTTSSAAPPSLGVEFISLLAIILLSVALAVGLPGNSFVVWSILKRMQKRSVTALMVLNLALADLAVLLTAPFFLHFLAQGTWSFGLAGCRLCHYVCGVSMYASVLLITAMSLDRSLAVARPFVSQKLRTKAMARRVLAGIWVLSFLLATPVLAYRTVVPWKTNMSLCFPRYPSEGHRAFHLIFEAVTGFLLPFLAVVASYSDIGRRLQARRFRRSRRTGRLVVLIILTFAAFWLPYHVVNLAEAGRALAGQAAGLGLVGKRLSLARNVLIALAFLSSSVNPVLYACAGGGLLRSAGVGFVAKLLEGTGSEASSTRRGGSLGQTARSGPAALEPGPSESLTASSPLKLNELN

[5] = biological target: T3, Serotonin 5-HT transporter (Homo sapiens, UniProt P31645); assay: radioligand binding (Table S2); settings: [3H] Imipramine, Human recombinant CHO cells
T3 construct: host or cells: CHO cells
T3 sequence (P31645 whole entry): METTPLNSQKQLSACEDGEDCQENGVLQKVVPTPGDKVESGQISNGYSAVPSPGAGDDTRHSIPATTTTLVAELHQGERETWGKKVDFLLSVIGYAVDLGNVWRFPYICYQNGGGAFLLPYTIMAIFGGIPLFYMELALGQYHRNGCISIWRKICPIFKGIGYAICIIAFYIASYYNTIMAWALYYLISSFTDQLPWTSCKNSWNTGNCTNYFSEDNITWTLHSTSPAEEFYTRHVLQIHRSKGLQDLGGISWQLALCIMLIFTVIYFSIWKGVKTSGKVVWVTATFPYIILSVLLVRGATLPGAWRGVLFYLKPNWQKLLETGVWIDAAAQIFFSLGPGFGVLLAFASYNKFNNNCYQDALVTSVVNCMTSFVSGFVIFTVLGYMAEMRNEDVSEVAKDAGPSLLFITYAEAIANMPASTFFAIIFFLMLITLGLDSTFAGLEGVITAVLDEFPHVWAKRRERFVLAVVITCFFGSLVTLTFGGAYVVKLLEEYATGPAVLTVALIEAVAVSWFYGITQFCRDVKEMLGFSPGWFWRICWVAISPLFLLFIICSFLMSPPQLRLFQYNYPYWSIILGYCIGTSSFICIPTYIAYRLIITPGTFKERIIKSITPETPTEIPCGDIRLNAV

Serotonin 5-HT2B = biological target: T4, Serotonin 5-HT2B (Homo sapiens, UniProt P41595); assay: radioligand binding (Table S2); settings: [125I] (±)DOI, Human recombinant CHO cells
T4 construct: host or cells: CHO cells
T4 sequence (P41595 whole entry): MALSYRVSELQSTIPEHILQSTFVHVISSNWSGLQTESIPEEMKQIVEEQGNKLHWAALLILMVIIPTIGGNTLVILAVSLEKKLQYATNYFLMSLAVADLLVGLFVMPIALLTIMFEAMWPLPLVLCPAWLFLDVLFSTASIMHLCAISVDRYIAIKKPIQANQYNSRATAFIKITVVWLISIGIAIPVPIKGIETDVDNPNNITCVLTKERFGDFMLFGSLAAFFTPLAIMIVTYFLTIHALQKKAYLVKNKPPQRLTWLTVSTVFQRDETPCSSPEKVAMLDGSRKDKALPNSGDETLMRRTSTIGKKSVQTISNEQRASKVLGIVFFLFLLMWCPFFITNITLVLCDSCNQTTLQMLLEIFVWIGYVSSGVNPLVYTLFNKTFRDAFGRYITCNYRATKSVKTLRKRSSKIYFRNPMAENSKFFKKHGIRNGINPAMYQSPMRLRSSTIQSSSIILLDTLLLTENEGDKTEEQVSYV

[6] = biological target: T5, Benzodiazepine BZD (peripheral) (Rattus norvegicus, UniProt P16257); assay: radioligand binding (Table S2)
T5 construct: tissue Eurofins; host or cells: rat heart

[7] = test system: Glutamate ionotropic, AMPA; assay: radioligand binding (Table S2); settings: [3H] AMPA, Rat cerebral cortex
Serotonin 5-HT1A = biological target: T6, Serotonin 5-HT1A (Homo sapiens, UniProt P08908); assay: radioligand binding (Table S2); settings: [3H] 8-OH-DPAT, Human recombinant HEK-293 cells
T6 construct: host or cells: HEK-293 cells
T6 sequence (P08908 whole entry): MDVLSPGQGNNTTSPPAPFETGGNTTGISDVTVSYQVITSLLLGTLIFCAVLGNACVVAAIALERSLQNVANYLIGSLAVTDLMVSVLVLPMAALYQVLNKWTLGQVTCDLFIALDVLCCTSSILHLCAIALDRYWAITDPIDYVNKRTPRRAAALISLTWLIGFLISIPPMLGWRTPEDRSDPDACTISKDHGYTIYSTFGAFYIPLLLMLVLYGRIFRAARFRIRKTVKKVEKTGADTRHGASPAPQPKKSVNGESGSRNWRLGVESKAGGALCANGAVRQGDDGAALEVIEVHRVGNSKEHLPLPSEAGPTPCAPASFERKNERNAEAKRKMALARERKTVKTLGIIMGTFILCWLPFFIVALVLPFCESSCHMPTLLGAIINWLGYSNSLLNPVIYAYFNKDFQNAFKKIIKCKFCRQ

[8] = test system: Calcium Ca2+ channel (L-dihydropyridine site); assay: radioligand binding (Table S2); settings: [3H] Nitrendepine, Rat cerebral cortex
Dopamine D3 = biological target: T7, Dopamine D3 (Homo sapiens, UniProt P35462); assay: radioligand binding (Table S2); settings: [3H] Methylspiperone, Human recombinant CHO cells
T7 construct: host or cells: CHO cells
T7 sequence (P35462 whole entry): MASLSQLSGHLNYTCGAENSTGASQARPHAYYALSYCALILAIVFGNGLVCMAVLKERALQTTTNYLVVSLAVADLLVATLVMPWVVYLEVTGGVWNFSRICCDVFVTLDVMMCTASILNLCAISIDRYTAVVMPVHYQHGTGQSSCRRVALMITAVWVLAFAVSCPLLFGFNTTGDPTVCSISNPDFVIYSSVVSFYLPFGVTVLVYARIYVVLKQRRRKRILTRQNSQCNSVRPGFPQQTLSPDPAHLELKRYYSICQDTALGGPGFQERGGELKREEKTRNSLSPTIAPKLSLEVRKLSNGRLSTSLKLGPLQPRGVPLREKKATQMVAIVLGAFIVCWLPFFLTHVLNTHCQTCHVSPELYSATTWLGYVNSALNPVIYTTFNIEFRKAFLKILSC

[9] = test system: Glutamate ionotropic, NMDA; assay: radioligand binding (Table S2); settings: [3H] CGP 39653, Rat cerebral cortex
Cholecystokinin CCK1 = Cholecystokinin CCK1 (Homo sapiens, UniProt P32238); assay: radioligand binding (Table S2); settings: [125I] CCK-8s, Human recombinant CHO cells
Chain of Cholecystokinin CCK1 (P32238 whole entry): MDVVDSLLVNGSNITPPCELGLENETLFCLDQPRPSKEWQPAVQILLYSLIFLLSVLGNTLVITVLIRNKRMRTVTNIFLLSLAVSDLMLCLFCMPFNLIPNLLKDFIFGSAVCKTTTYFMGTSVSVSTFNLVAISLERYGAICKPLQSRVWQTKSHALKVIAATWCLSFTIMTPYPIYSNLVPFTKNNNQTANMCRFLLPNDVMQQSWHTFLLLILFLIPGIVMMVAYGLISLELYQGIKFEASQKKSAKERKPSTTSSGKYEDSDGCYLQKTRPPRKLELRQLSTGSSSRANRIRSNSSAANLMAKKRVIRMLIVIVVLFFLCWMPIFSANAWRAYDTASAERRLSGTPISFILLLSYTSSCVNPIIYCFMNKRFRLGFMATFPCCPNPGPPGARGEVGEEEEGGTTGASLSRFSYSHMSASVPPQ

Histamine H4 = biological target: T8, Histamine H4 (Homo sapiens, UniProt Q9H3N8); assay: radioligand binding (Table S2); settings: [3H] Histamine, Human recombinant HEK-293 cells
T8 construct: host or cells: HEK-293 cells
T8 sequence (Q9H3N8 whole entry): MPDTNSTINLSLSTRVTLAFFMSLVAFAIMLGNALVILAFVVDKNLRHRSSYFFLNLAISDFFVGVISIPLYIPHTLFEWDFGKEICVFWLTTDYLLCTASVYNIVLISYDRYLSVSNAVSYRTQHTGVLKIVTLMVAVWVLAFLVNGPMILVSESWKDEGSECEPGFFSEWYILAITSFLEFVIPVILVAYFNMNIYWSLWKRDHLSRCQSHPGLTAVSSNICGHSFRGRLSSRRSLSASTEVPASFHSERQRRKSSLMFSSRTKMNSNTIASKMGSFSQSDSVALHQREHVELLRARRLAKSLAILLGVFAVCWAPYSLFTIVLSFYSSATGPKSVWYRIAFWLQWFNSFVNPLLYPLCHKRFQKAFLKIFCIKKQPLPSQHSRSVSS

Opioid δ (DOP) = biological target: T9, Opioid δ (DOP) (Homo sapiens, UniProt P41143); assay: radioligand binding (Table S2); settings: [3H] DADLE, Human recombinant CHO cells
T9 construct: host or cells: CHO cells

Glucagon = Glucagon (Homo sapiens, UniProt P47871); assay: radioligand binding (Table S2); settings: read-out: % Inhibition @ 10 µM
Chain of Glucagon (P47871 26-477): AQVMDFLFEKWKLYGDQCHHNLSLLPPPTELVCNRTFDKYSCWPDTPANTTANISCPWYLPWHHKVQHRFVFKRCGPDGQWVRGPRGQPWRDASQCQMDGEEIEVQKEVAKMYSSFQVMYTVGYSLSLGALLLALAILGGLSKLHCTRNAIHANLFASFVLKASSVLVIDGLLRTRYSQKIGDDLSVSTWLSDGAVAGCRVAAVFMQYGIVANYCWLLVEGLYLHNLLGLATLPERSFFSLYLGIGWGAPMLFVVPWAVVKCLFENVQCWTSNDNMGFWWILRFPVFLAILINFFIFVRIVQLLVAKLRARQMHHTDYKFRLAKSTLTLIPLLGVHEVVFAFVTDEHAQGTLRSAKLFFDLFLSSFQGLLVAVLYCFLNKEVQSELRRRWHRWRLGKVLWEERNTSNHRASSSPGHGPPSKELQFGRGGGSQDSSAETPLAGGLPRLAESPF

Caco-2 cell monolayer = settings: human, Caco-2, 60 min, 10 µM
Adenosine A2B = Adenosine A2B (Homo sapiens, UniProt P29275); assay: radioligand binding (Table S2); settings: read-out: % Inhibition @ 10 µM
Chain of Adenosine A2B (P29275 whole entry): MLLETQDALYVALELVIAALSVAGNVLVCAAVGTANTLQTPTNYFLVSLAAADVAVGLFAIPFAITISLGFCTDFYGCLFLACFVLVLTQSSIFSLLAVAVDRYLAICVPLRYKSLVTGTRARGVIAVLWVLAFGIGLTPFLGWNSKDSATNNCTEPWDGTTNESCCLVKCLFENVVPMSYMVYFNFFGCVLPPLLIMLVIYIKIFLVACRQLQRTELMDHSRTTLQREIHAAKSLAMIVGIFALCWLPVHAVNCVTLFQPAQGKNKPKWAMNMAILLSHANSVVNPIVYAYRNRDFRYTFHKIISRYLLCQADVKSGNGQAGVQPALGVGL

B2 receptor [10] = biological target: T10, B2 receptor (Homo sapiens, UniProt P30411); assay: Ca^2+ mobilization assay, transfected CHO cells; type: cell-based; parameters: host or cells: CHO cells; settings: inhibition of response to 0.03 nM BK
T10 sequence (P30411 1-391): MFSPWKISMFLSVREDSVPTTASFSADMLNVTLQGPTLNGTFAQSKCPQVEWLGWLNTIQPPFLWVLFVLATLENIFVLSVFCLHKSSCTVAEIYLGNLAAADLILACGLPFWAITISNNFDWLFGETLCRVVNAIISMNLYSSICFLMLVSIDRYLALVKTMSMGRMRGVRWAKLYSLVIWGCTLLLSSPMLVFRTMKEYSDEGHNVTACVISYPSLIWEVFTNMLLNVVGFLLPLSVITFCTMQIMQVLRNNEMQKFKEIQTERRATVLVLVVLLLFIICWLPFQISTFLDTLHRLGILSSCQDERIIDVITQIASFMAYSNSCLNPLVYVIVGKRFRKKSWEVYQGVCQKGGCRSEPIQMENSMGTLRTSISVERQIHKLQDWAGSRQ

Prostanoid EP1 = biological target: T11, Prostanoid EP1 (Homo sapiens, UniProt P34995); assay: radioligand binding (Table S2); settings: [3H] Prostaglandin E2, Human recombinant HEK-293 cells
T11 construct: host or cells: HEK-293 cells
T11 sequence (P34995 whole entry): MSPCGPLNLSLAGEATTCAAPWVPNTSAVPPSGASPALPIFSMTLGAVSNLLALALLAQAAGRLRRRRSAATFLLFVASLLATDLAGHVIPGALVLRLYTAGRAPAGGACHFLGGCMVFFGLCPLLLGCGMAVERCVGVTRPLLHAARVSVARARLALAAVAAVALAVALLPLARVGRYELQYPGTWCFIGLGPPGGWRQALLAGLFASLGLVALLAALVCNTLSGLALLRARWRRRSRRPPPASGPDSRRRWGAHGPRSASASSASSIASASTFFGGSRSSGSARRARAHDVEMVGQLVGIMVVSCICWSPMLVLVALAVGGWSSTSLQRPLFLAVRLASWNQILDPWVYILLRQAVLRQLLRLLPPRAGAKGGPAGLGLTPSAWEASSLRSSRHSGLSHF

B2 receptor [11] = biological target: T10, B2 receptor; assay: reversibility of antagonism after washout, umbilical vein; settings: for EC50: BK EC50 (nM)
B2 receptor [12] = biological target: T10, B2 receptor; assay: [^3H]BK competition binding assay, CHO cell membranes; parameters: host or cells: CHO cells; settings: competition with 0.3 nM [^3H]BK
[13] = arithmetic mean, read-out: IC50 (nM) Mean
[14] = geometric mean, read-out: IC50 (nM) Geometric mean

For `Cc1cc(-c2ncnn2C)c2cccc(OCc3c(Cl)cc(F)cc3[C@H](C)NC(=O)COC(F)F)c2n1` [Compound 3, (S)-N-(1-(3-chloro-5-fluoro-2-((2-methyl-4-(1-methyl-1H-1,2,4-triazol-5-yl)quinolin-8-yloxy)methyl)phenyl)ethyl)-2-(difluoromethoxy)acetamide], the “% Inhibition @ 10 µM” value [1] was 32.9%, the inhibition at 10 µM [2] was 13.4% and the inhibition at 10 µM [3] was -26.1%. The inhibition at 10 µM [4] was 16.7%, the inhibition at 10 µM [5] was -23.4% and the inhibition at 10 µM (Serotonin 5-HT2B) was -8.9%. For the same compound, the inhibition at 10 µM [6] was 42.3%, the “% Inhibition @ 10 µM” value [7] was 3.0% and the inhibition at 10 µM (Serotonin 5-HT1A) was -4%. For the same compound, the “% Inhibition @ 10 µM” value [8] was 7.3%, the inhibition at 10 µM (Dopamine D3) was 4.8% and the “% Inhibition @ 10 µM” value [9] was 5.1%. For the same compound, the inhibition at 10 µM (Cholecystokinin CCK1) was 2.7%, the inhibition at 10 µM (Histamine H4) was -2.8% and the inhibition at 10 µM (Opioid δ (DOP)) was 10.6%. The inhibition at 10 µM (Glucagon) was -0.6%, the “Caco-2 AB, apparent permeation rate apical to basolateral direction” value (Caco-2 cell monolayer) was > 10^-5 cm/s and the inhibition at 10 µM (Adenosine A2B) was 3.6%. It also gave an IC50 (B2 receptor [10]; [13]) of 2.13 nM, a Kb (B2 receptor [10]; arithmetic mean, read-out: Kb (nM) Mean) of 0.24 nM and an IC50 (B2 receptor [10]; [14]) of 2.13 nM. For the same compound, the Kb (B2 receptor [10]; geometric mean, read-out: Kb (nM) Geometric mean) was 0.24 nM, the inhibition at 10 µM (Prostanoid EP1) was 80% and the “reversibility of antagonism after washout” value (B2 receptor [11]; 100 nM) was “partial or slow reversibility”. The “reversibility of antagonism after washout” value (B2 receptor [11]; 1 and 10 nM) was “fully reversible”, the EC50 (B2 receptor [11]; after washout, 5 h, washout after Compound 3 1 nM, 5 h, vehicle washout 20.8 nM) was 22 nM and the EC50 (B2 receptor [11]; after washout, 5 h, washout after Compound 3 10 nM, 5 h, vehicle washout 20.8 nM) was 38.5 nM. The EC50 (B2 receptor [11]; after washout, 5 h, washout after Compound 3 100 nM, 5 h, vehicle washout 11.7 nM) was 84.1 nM, the EC50 (B2 receptor [11]; antagonist present, 3 h, Compound 3 1 nM, vehicle 3 h 18.7 nM) was 67.4 nM and the EC50 (B2 receptor [11]; antagonist present, 3 h, Compound 3 10 nM, vehicle 3 h 18.7 nM) was 225 nM. It also gave an EC50 (B2 receptor [11]; antagonist present, 3 h, Compound 3 100 nM, vehicle 3 h 7.5 nM) of 713 nM, an IC50 (B2 receptor [12]; [13]) of 0.97 nM and a Ki (B2 receptor [12]; arithmetic mean, read-out: Ki (nM) Mean) of 0.5 nM. It also gave an IC50 (B2 receptor [12]; [14]) of 0.97 nM and a Ki (B2 receptor [12]; geometric mean, read-out: Ki (nM) Geometric mean) of 0.5 nM.
